pIC50: −log10 of the molar value.
Legend:
[1] = test system: ovariectomized rats; experiment: Progestational effect in ovariectomized rats (pregnancy maintenance test); type: in vivo, rat; conditions: ovariectomized pregnant rats, 5 μg/kg/d oestrone, treatment from day 8 p.c. for 6 days
Protocol: This entails investigating the ability of the compounds to compensate for the lack of progesterone in ovariectomized animals which no longer have their own progesterone synthesis and to maintain pregnancy (“pregnancy maintenance”).
Female animals weighing 200-230 g were mated. The animals were ovariectomized on day 8 post coitum (p.c.) and treated with 5 μg/kg/d oestrone. The compounds to be tested were given in various concentrations (3, 10, 30 mg/kg/d). Treatment was started on day 8 p.c. and continued for 6 days.
One day after the last treatment, the animals were autopsied. The degree of pregnancy maintenance was calculated by dividing the number of live fetuses by the number of detectable implantation sites. The presence of a beating heart was decisive for assessing a fetus as alive. No identifiable implantation sites (ovariectomized controls) was defined as 0% pregnancy maintenance.
The ED50 (concentration at which the half-maximum effect occurs) was determined as a measure of the progestational potency.

[2] = test system: ovariectomized rats; experiment: Modified pregnancy maintenance experiment with pharmacokinetic/pharmacodynamic model (AUC versus pregnancy maintenance); type: in vivo; conditions: rat, calculated from physiologically based PK model
Source text: In order to describe the difference in their progestational potency more precisely, in a modified pregnancy maintenance experiment blood samples were additionally taken at various times to determine pharmacokinetic parameters. The rats were pretreated in this case as described in the preceding experiment. A physiologically based pharmacokinetic model was developed using the programmes PK-SIM, version 4.0.1 (Bayer Technology Services, Leverkusen, Germany), GastroPlus version 5.2 (Simulations Plus, Inc., Lancaster, Calif., USA) and WinNonlin® Professional (version 5.2, Pharsight Corp., Mountain View, Calif., USA).
The relation was found between the AUC (area under the curve of the time-concentration profile) reached during the experiment and the measured pharmacological effect, i.e. the pregnancy maintenance achieved. The model thus permitted estimation of AUC50 values.
Based on the relation between systemic exposure and effect, the AUC in blood necessary to achieve 80% pregnancy maintenance in the rat model was calculated (Table 2).

[3] = test system: adrenalectomized rats; experiment: Antimineralocorticoid effect in adrenalectomized rats (diuresis experiment); type: in vivo, rat; conditions: for ED50, antimineralocorticoid effect in the diuresis experiment: adrenalectomized male rats, s.c., aldosterone 1 μg/kg/h, AUC of urinary Na/K ratio
Protocol: The antimineralocorticoid effect of the compounds was determined as described by Losert at al. (Losert, W., Casals-Stenzel, J., and Buse, M. (1985). Progestogens with antimineralocorticoid activity. Arzneimittelforschung 35, 459-471).
Male animals weighing 180-200 g were adrenalectomized 5 days before the experiment and received replacement with glucocorticoids. A diuresis experiment was carried out on day 5 after the adrenalectomy. A continuous infusion of isotonic NaCl solution plus 5% glucose was administered i.v. to the animals. Simultaneous administration of 1 μg/kg/h d-aldosterone achieved a constant mineralocorticoid effect, identifiable from sodium retention and kaliuresis. The test compounds were administered s.c. in various dosages (3, 10 and 30 mg/kg), and the abolition of the aldosterone-induced sodium retention indicates an antimineralocorticoid effect.
The animals were kept in metabolism cages and urine fractions were collected each hour. The sodium and potassium ion concentration in the urine was determined by a flame-photometry method, and the Na/K ratio was calculated therefrom. The Na/K ratios were plotted against time and the area under the curve [AUC] was determined. The ED50 (concentration at which the half-maximum effect occurs) was determined as a measure of the antimineralocorticoid potency.

[4] = biological target: T1, human androgen receptor (hAR) (Homo sapiens, UniProt P10275); experiment: Antiandrogen transactivation assay (PC3 cells, hAR, MMTV-luciferase reporter); type: cell-based; conditions: for pIC50: PC3 cells stably transfected with hAR and MMTV-luciferase, 16 hours incubation, read-out: IC50, antiandrogenic effect in the transactivation assay; for Efficacy: per cent of the maximum effect of reference antiandrogen hydroxyflutamide
T1 construct: expressed in transfected cells; host or cells: PC3 cells, stably transfected with hAR and an MMTV-luciferase reporter
T1 sequence (P10275 1-920): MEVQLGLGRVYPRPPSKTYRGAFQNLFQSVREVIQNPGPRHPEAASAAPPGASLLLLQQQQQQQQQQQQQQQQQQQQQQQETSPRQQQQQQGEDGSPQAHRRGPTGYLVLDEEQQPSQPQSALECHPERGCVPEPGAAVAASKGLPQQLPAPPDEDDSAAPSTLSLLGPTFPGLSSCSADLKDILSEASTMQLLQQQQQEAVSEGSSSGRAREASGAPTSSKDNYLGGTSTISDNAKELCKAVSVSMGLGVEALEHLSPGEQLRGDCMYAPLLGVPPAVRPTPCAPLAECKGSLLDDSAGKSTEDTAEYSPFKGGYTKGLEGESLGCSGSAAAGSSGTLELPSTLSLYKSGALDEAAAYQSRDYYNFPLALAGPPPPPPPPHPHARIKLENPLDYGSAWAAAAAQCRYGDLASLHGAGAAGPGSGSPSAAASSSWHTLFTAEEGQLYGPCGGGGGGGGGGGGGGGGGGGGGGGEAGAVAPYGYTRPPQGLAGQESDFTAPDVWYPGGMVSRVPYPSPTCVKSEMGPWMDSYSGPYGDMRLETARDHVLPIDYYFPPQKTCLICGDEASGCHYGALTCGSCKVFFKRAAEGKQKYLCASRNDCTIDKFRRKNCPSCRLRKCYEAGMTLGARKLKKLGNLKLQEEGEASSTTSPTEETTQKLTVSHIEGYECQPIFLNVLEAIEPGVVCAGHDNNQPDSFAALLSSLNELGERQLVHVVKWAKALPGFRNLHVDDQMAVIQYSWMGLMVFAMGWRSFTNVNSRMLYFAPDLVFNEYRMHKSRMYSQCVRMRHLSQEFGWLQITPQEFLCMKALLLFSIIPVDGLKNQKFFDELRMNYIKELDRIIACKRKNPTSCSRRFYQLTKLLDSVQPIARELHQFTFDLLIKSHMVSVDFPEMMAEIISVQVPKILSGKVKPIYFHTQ
Protocol: The antiandrogenic effect was carried out as described in Schneider et al. (Schneider K., Graf E., Irran E., Nicholson G., Stainsby F. M., Goodfellow M., Borden S. A., Keller S., Süssmuth R. D. and Fiedler H. P. (2008) Bendigoles A˜C, New Steroids from Gordonia australis Acta 2299, J. Antibiotics (Tokyo) 61 (6), 356-364).
The culture medium used for culturing cells used for the assay was RPMI (PAA, #E15-49) with 10% FCS, […] L-glutamine, 100 U/100 ug/ml penicillin/streptomycin. Reporter cell lines (PC3 cells stably transfected with human androgen receptor (hAR) and a reporter construct which comprises luciferase under the control of an androgen-responsive promoter (MMTV)) were grown at a density of 4×10^4 cells per well in white, opaque tissue culture plates with 96 wells in each (Perkin Elmer, #P12-106-017) and maintained in culture medium with 3% DCC-FCS (serum treated with activated carbon to remove interfering components present in the serum). The compounds to be investigated were added eight hours later, and the cells were incubated with the compounds for 16 hours. The experiments were carried out in triplicate. At the end of the incubation, the effector-containing medium was removed and replaced by lysis buffer.
After luciferase assay substrate (Promega, #E1501) had been added, the plates with the 96 wells were then inserted into a microplate luminometer (Pherastar, BMG labtech), and the luminescence was measured. The IC50 values were evaluated using software for calculating dose-activity relationships. The efficacy indicates the per cent of the maximum effect by comparison with the maximum effect of a reference antiandrogen (hydroxyflutamide).

[5] = test system: orchidectomized rats; experiment: Antiandrogenic effect in orchidectomized rats (Hershberger); type: in vivo, rat; conditions: for Antiandrogenic effect (% inhibition): 1 mg/kg/day TP s.c. plus 10 mg/kg/day test substance for seven days, prostate weight; for antiandrogenic effect (in words): Hershberger
Protocol: This entails testing the suitability of the compounds for inhibiting the androgen-dependent growth of prostate, seminal vesicle and levator ani muscle in young, male, castrated rats receiving androgen replacement.
For this purpose, young rats are initially castrated. Eight days after the orchidectomy, the animals receive 1 mg/kg/day testosterone propionate (TP) s.c. alone or in combination with the test substances (10 mg/kg/day) for seven days.
On day 15 after the orchidectomy, the animals are sacrificed, and prostate, seminal vesicle and levator ani muscle are dissected out, and the relative wet weight is determined. The inhibited androgen-induced growth serves as a measure of the antiandrogenic effect of the test substance.

[6] = test system: IDI1 mRNA; experiment: Antiandrogenic effect in orchidectomized rats, gene expression in prostate tissue (TaqMan PCR); conditions: for antiandrogenic effect (in words): IDI1 gene expression, orchidectomized rats; for fold induction at 10 mg/kg: Rattus norvegicus, 24 h, read-out: x-fold induction factor of IDI1 mRNA after TP administration; for Antiandrogenic effect (% inhibition): inhibition of TP-induced IDI1 mRNA induction, prostate, 24 hours
Protocol: As a modification of the Hershberger assay described above, in addition animals were sacrificed 24 hours after the first treatment (1 mg/kg TP, 10 mg/kg test substance), and prostate tissue was shock-frozen immediately after the autopsy and then employed for mRNA isolation. A quantitative PCR method (TagMan) was used to investigate the induction (x-fold induction factor) of androgen-stimulated genes, inter alis of steroid biosynthesis (e.g. IDI1, NM 004508.2) as a measure of the androgenic effect of TP and the inhibition thereof by the compounds of the invention.

| Compound | ED50, progestational effect in the pregnancy maintenance test [1] | AUC (blood, calculated) in rats necessary for 80% pregnancy maintenance [2] | ED50, antimineralocorticoid effect in the diuresis experiment [3] | pIC50 [4] | Efficacy [4] | Antiandrogenic effect (% inhibition) [5] | antiandrogenic effect (in words) [6] | fold induction at 10 mg/kg [6] | Antiandrogenic effect (% inhibition) ([6]; 10 mg/kg test substance) | antiandrogenic effect (in words) [5] | ED50 ([3]; Rattus norvegicus, sc) | x-fold induction factor of IDI1 mRNA after TP administration ([6]; prostate tissue 24 hours after first treatment, 1 mg/kg TP, 10 mg/kg test substance) |
| --- | --- | --- | --- | --- | --- | --- | --- | --- | --- | --- | --- | --- |
| C[C@]12CCC(=O)C=C1[C@@H]1C[C@@H]1C1C2=CC[C@@]2(C)C1[C@@H]1C[C@@H]1[C@@]21CCC(=O)O1 (stereo partly drawn) [Compound of Ex. 1, 6β,7β;15β,16β-Dimethylene-3-oxo-17-pregna-4,9(11)-diene-21,17β-carbolactone] | 2.9 mg/kg/day | 210 (μg*h/L) | 5.9 mg/kg/day | 6.62 | 19.3 per cent | <0% | no antiandrogenic effect | 7.89 | <0% | – | – | – |
| CC(=O)O[C@]1(C(C)=O)CC[C@H]2[C@@H]3C=C(Cl)C4=CC(=O)[C@@H]5C[C@@H]5[C@]4(C)[C@H]3CC[C@@]21C [Cyproterone acetate, cyproterone acetate] | – | – | – | – | – | 73.1% | strong antiandrogenic effect | 1.53 | 91% | strong antiandrogenic effect | – | – |
| C[C@]12CCC(=O)C=C1[C@@H]1C[C@@H]1C1C2[C@@H](F)C[C@@]2(C)C1[C@@H]1C[C@@H]1[C@@]21CCC(=O)O1 (single isomer, unassigned) [Compound of Ex. 2, 6β,7β;15β,16β-Dimethylene-11β-fluoro-3-oxo-17-pregn-4-ene-21,17β-carbolactone] | 3.4 mg/kg/day | – | 12.36 mg/kg/day | 6.80 | 31.9 per cent | 3.8% | – | – | – | – | – | – |
| C[C@]12CCC(=O)C=C1[C@@H]1C[C@@H]1C1C2CC[C@@]2(C)C1[C@@H]1C[C@@H]1[C@@]21CCC(=O)O1 (stereo partly drawn) [Drospirenone, 6β,7β-15β,16β-dimethylene-3-oxo-17-pregn-4-ene-21,17β-carbolactone] | 10 mg/kg/day | 1346 (μg*h/L) | – | – | – | 22.5% | smaller but distinct antiandrogenic effect | – | 27% | smaller but distinct antiandrogenic effect | 6.7 mg/kg | – |
| CCC(=O)O[C@H]1CC[C@H]2[C@@H]3CCC4=CC(=O)CC[C@]4(C)[C@H]3CC[C@]12C [TP, testosterone propionate] | – | – | – | – | – | – | – | – | – | – | – | 7.07 |
